Laboratory results as given in patent US20120328628A1, “ANTIBODIES TO CONFORMATIONALLY TRAPPED PROTEINS” (The Regents of the University of California, priority 2006, published 2012).

Target: T1, wild-type caspase-1 (Homo sapiens, UniProt P29466)
T1 construct: single site alanine mutants for each of these residues in either the p10 or p20 subunit; made in house; E. coli is printed only for caspase-4/-5 made by the caspase-1 procedure
T1 sequence (P29466 120-297 limits assumed): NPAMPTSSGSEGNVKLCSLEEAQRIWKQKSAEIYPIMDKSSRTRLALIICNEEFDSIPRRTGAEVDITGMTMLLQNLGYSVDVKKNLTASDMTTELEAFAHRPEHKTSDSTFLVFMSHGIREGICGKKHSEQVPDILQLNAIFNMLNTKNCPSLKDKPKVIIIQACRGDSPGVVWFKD
T1 sequence (P29466 317-404 limits assumed): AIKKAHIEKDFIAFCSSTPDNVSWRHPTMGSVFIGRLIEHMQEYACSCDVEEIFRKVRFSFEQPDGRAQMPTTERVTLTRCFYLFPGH
Experiment: Titration of wild-type caspase-1 with z-VAD-FMK
Type: biochemical
Source text: To test this, wild-type caspase-1 was titrated with inhibitor and found to produce a 2-fold activation when one reaches 0.2 equivalents of z-VAD-FMK. […] If the inhibitor labeled in a non-cooperative fashion we would expect that it would reach an optimum upon addition of about 0.5 equivalents and would cause a […] activation as half of the sites are inactivated. The fact this maxima is below 0.5 equivalents and is less than […] probably reflects that labeling is cooperative too. […] Thus, we have developed a second assay for evaluating the active site coupling.

In the case of z-VAD-FMK, the “activation of wild-type caspase-1” value (0.2 equivalents of inhibitor) is reported as 2 fold and the “inhibition of wild-type caspase-1” value (approaching one equivalent of inhibitor) is reported as “complete inhibition”.
